Biological target: T1, Recombinant human liver GK1 (GST-GK) (Homo sapiens, UniProt P35557)
T1 construct: made in house; host or cells: E. coli
T1 sequence (P35557 1-466 isoform P35557-2): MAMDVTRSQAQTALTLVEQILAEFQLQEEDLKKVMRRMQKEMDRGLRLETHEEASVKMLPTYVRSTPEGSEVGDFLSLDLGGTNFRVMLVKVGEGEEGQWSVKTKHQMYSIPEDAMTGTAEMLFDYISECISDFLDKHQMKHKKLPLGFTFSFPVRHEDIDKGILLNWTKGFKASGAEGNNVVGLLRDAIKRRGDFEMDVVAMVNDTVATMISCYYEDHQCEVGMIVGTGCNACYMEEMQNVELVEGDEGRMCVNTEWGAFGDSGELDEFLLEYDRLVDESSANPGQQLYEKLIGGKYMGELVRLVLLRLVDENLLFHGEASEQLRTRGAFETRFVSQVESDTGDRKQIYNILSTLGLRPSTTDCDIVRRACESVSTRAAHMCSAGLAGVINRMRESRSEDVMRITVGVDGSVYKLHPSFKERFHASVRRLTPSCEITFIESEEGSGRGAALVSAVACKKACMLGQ
Experiment: In vitro glucokinase activity (G6PDH-coupled NADH generation assay)
Format: biochemical
Design: unit not given here
Conditions: concentration of activator that produced a 50% increase in the activity of GK; 5 mM D-glucose, 30° C., pH 7.1, 10% DMSO
Protocol: Glucokinase In Vitro Assay Protocol: Glucokinase (GK) was assayed by coupling the production of glucose-6-phosphate to the generation of NADH with glucose-6-phosphate dehydrogenase (G6PDH, 0.75-1 kunits/mg; Boehringer Mannheim, Indianapolis, Ind.) from Leuconostoc mesenteroides as the coupling enzyme:
Recombinant human liver GK1 was expressed in E. coli as a glutathione S-transferase fusion protein (GST-GK) [Liang et al, 1995]and was purified by chromatography over a glutathione-Sepharose 4B affinity column using the procedure provided by the manufacturer (Amersham Pharmacia Biotech, Piscataway, N.J.).
The assay was conducted at 30° C. in a flat bottom 96-well tissue culture plate from Costar (Cambridge, Mass.) with a final incubation volume of 120 μL. The incubation reaction contained the following: 25 mM Hepes buffer (pH 7.1), 25 mM KCl, 5 mM D-glucose, 1 mM ATP, 1.8 mM NAD, 2 mM MgCl2, 1 μM sorbitol-6-phosphate, 1 mM dithiothreitol, test drug or 10% DMSO, ˜7 units/ml G6PDH, and GK (see below). All organic reagents were >98% pure and were from Boehringer Mannheim with the exceptions of D-glucose and Hepes which were from Sigma Chemical Co, St Louis, Mo. Test compounds were dissolved in DMSO and were added to the incubation reaction minus GST-GK in a volume of 12 μL to yield a final DMSO concentration of 10%. This mix was pre-incubated in the temperature controlled chamber of a SPECTRAmax 250 microplate spectrophotometer (Molecular Devices Corporation, Sunnyvale, Calif.) for 10 minutes to allow temperature equilibrium and then the reaction was started by the addition of 20 μL GST-GK.
After addition of enzyme, the increase in optical density (OD) at 340 nm was monitored spectrophotometrically to determine the rate of change (OD340 per min). The GK activity (OD340/min) in control wells (10% DMSO minus GK activators) was compared with the activity in wells containing test GK activators, and the concentration of activator that produced a 50% increase in the activity of GK, i.e., the SC1.5:0.1, was calculated. The table below provides the in vitro glucokinase activity for the compounds in the Examples: […]

| SC 1.5:0.1 | Compound |
| --- | --- |
| 4.181 | O=C(Nc1nccs1)[C@H](CC1CCCCC1)N1CC2=C(Oc3c(Cl)cccc3C2)C1=O [Example 21, (S)-2-(5-Chloro-3-oxo-3,9-dihydro-1H-chromeno[2,3-c]pyrrol-2-yl)-3-cyclohexyl-N-thiazol-2-yl-propionamide] |
| 2.532 | COc1ccc(OC)c2c1CC1=C(O2)C(=O)N([C@@H](CC(C)C)C(=O)Nc2ccccn2)C1 [Example 18, (S)-2-(5,8-Dimethoxy-3-oxo-3,9-dihydro-1H-chromeno[2,3-c]pyrrol-2-yl)-4-methyl-pentanoic acid pyridin-2-ylamide] |
| 0.507 | COc1cccc2c1CC1=C(O2)C(=O)N([C@@H](CC2CCCCC2)C(=O)Nc2ccn(C[C@@H](O)CO)n2)C1 [Example 25, (S)-3-Cyclohexyl-N-[1-((R)-2,3-dihydroxy-propyl)-1H-pyrazol-3-yl]-2-(8-methoxy-3-oxo-3,9-dihydro-1H-chromeno[2,3-c]pyrrol-2-yl)-propionamide] |
| 0.219 | COC(=O)c1ccc(NC(=O)[C@H](CC2CCCCC2)N2CC3=C(Oc4c(OC)ccc(OC)c4C3)C2=O)nc1 [Example 17, 6-[(S)-3-Cyclohexyl-2-(5,8-dimethoxy-3-oxo-3,9-dihydro-1H-chromeno[2,3-c]pyrrol-2-yl)-propionylamino]-nicotinic acid methyl ester] |
| 0.428 | COc1ccc(OC)c2c1CC1=C(O2)C(=O)N([C@@H](CC2CCCCC2)C(=O)Nc2ccc(Cl)cn2)C1 [Example 15, (S)—N-(5-Chloro-pyridin-2-yl)-3-cyclohexyl-2-(5,8-dimethoxy-3-oxo-3,9-dihydro-1H-chromeno[2,3-c]pyrrol-2-yl)-propionamide] |
| 9.858 | COC(=O)c1ccc(NC(=O)[C@H](CC(C)C)N2CC3=C(Oc4c(Cl)cccc4C3)C2=O)nc1 [Example 22, 6-[(S)-2-(5-Chloro-3-oxo-3,9-dihydro-1H-chromeno[2,3-c]pyrrol-2-yl)-4-methyl-pentanoylamino]-nicotinic acid methyl ester] |
| 2.439 | COc1ccc(OC)c2c1CC1=C(O2)C(=O)N([C@@H](CC2CCCCC2)C(=O)Nc2nccs2)C1 [Example 16, (S)-3-Cyclohexyl-2-(5,8-dimethoxy-3-oxo-3,9-dihydro-1H-chromeno[2,3-c]pyrrol-2-yl)-N-thiazol-2-yl-propionamide] |
| 2.423 | O=C(Nc1ccccn1)[C@H](CC1CCCCC1)N1CC2=C(Oc3c(Cl)cccc3C2)C1=O [Example 20, (S)-2-(5-Chloro-3-oxo-3,9-dihydro-1H-chromeno[2,3-c]pyrrol-2-yl)-3-cyclohexyl-N-pyridin-2-yl-propionamide] |
| 11.865 | CC(C)C[C@@H](C(=O)Nc1ccccn1)N1CC2=C(Oc3c(Cl)cccc3C2)C1=O [Example 23, (S)-2-(5-Chloro-3-oxo-3,9-dihydro-1H-chromeno[2,3-c]pyrrol-2-yl)-4-methyl-pentanoic acid pyridin-2-ylamide] |
| 18.957 | CC(C)C[C@@H](C(=O)Nc1nccs1)N1CC2=C(Oc3c(Cl)cccc3C2)C1=O [Example 24, (S)-2-(5-Chloro-3-oxo-3,9-dihydro-1H-chromeno[2,3-c]pyrrol-2-yl)-4-methyl-pentanoic acid thiazol-2-ylamide] |
| 0.911 | COc1ccc(OC)c2c1CC1=C(O2)C(=O)N([C@@H](CC(C)C)C(=O)Nc2ccc(Cl)cn2)C1 [Example 14, (S)-2-(5,8-Dimethoxy-3-oxo-3,9-dihydro-1H-chromeno[2,3-c]pyrrol-2-yl)-4-methyl-pentanoic acid (5-chloro-pyridin-2-yl)-amide] |
| 0.803 | COC(=O)c1ccc(NC(=O)[C@H](CC(C)C)N2CC3=C(Oc4c(OC)ccc(OC)c4C3)C2=O)nc1 [Example 19, 6-[(S)-2-(5,8-Dimethoxy-3-oxo-3,9-dihydro-1H-chromeno[2,3-c]pyrrol-2-yl)-4-methyl-pentanoylamino]-nicotinic acid methyl ester] |

The next lines start with the molecule.

| Compound | SC 1.5:0.1 |
| --- | --- |
| CC(C)C[C@@H](C(=O)Nc1nccs1)N1CC2=C(Oc3cccc(Cl)c3C2)C1=O [Example 5, (S)-2-(8-Chloro-3-oxo-3,9-dihydro-1H-chromeno[2,3-c]pyrrol-2-yl)-4-methyl-pentanoic acid thiazol-2-ylamide] | 9.277 |
| COC(=O)c1ccc(NC(=O)[C@H](CC2CCCCC2)N2CC3=C(Oc4cccc(OC)c4C3)C2=O)nc1 [Example 10, 6-[(S)-3-Cyclohexyl-2-(8-methoxy-3-oxo-3,9-dihydro-1H-chromeno[2,3-c]pyrrol-2-yl)-propionylamino]-nicotinic acid methyl ester] | 0.302 |
| COC(=O)c1ccc(NC(=O)[C@H](CC(C)C)N2CC3=C(Oc4cccc(OC)c4C3)C2=O)nc1 [Example 12, 6-[(S)-2-(8-Methoxy-3-oxo-3,9-dihydro-1H-chromeno[2,3-c]pyrrol-2-yl)-4-methyl-pentanoylamino]-nicotinic acid methyl ester] | 0.906 |
| O=C(Nc1ccccn1)[C@H](CC1CCCCC1)N1CC2=C(Oc3cccc(Cl)c3C2)C1=O [Example 1, (S)-2-(8-Chloro-3-oxo-3,9-dihydro-1H-chromeno[2,3-c]pyrrol-2-yl)-3-cyclohexyl-N-pyridin-2-yl-propionamide] | 1.311 |
| O=C(Nc1nccs1)[C@H](CC1CCCCC1)N1CC2=C(Oc3cccc(Cl)c3C2)C1=O [Example 2, (S)-2-(8-Chloro-3-oxo-3,9-dihydro-1H-chromeno[2,3-c]pyrrol-2-yl)-3-cyclohexyl-N-thiazol-2-yl-propionamide] | 4.051 |
| COc1cccc2c1CC1=C(O2)C(=O)N([C@@H](CC2CCCCC2)C(=O)Nc2ccc(Cl)cn2)C1 [Example 8, (S)—N-(5-Chloro-pyridin-2-yl)-3-cyclohexyl-2-(8-methoxy-3-oxo-3,9-dihydro-1H-chromeno[2,3-c]pyrrol-2-yl)-propionamide] | 0.292 |
| COc1cccc2c1CC1=C(O2)C(=O)N([C@@H](CC2CCCCC2)C(=O)Nc2ccccn2)C1 [Example 7, (S)-3-Cyclohexyl-2-(8-methoxy-3-oxo-3,9-dihydro-1H-chromeno[2,3-c]pyrrol-2-yl)-N-pyridin-2-yl-propionamide] | 0.333 |
| COC(=O)c1ccc(NC(=O)[C@H](CC(C)C)N2CC3=C(Oc4cccc(Cl)c4C3)C2=O)nc1 [Example 6, 6-[(S)-2-(8-Chloro-3-oxo-3,9-dihydro-1H-chromeno[2,3-c]pyrrol-2-yl)-4-methyl-pentanoylamino]-nicotinic acid methyl ester] | 3.324 |
| CC(C)C[C@@H](C(=O)Nc1ccc(Cl)cn1)N1CC2=C(Oc3cccc(Cl)c3C2)C1=O [Example 4, (S)-2-(8-Chloro-3-oxo-3,9-dihydro-1H-chromeno[2,3-c]pyrrol-2-yl)-4-methyl-pentanoic acid (5-chloro-pyridin-2-yl)-amide] | 3.18 |
| CC(C)C[C@@H](C(=O)Nc1ccccn1)N1CC2=C(Oc3cccc(Cl)c3C2)C1=O [Example 3, (S)-2-(8-Chloro-3-oxo-3,9-dihydro-1H-chromeno[2,3-c]pyrrol-2-yl)-4-methyl-pentanoic acid pyridin-2-ylamide] | 4.602 |
| COc1cccc2c1CC1=C(O2)C(=O)N([C@@H](CC(C)C)C(=O)Nc2nccs2)C1 [Example 11, (S)-2-(8-Methoxy-3-oxo-3,9-dihydro-1H-chromeno[2,3-c]pyrrol-2-yl)-4-methyl-pentanoic acid thiazol-2-ylamide] | 8.123 |
| COc1ccc(OC)c2c1CC1=C(O2)C(=O)N([C@@H](CC2CCCCC2)C(=O)Nc2ccccn2)C1 [Example 13, (S)-3-Cyclohexyl-2-(5,8-dimethoxy-3-oxo-3,9-dihydro-1H-chromeno[2,3-c]pyrrol-2-yl)-N-pyridin-2-yl-propionamide] | 0.304 |
| COc1cccc2c1CC1=C(O2)C(=O)N([C@@H](CC2CCCCC2)C(=O)Nc2nccs2)C1 [Example 9, (S)-3-Cyclohexyl-2-(8-methoxy-3-oxo-3,9-dihydro-1H-chromeno[2,3-c]pyrrol-2-yl)-N-thiazol-2-yl-propionamide] | 0.746 |

— patent US8178689B2, “Tricyclic compounds” (Hoffman-La Roche Inc., priority 2010, dated 2012)
